Measurements reported in publication PMC6733655 (Biochemical pharmacology, 2019).
“And” between values parts separate entries of the source, which are not always exact repeats. Equal values may be shown once. “Also recorded” adds a separate entry of the source. Read-outs that look alike come from different tables or passages of the source.

Experiments:
[1] = In situ single-pass jejunal perfusion of gemcitabine; assay type: in vivo, C57BL/6 mice; conditions: for Papp at 90 min, 100 μM: pH 6, effective permeability (Peff)
[2] = as above; assay type: in vivo, BALB/c mice; conditions: female, BALB/c, mouse, other: in situ single-pass jejunal perfusion, pH 6
[3] = system: nucleoside transporters (CNT1, CNT3, ENT1, ENT2); assay: Inhibition; assay type: in vivo, C57BL/6 mice
[4] = mice, cited from earlier work
[5] = 100 μM gemcitabine, female BALB/c mice, corrected for cytosine; cited from earlier work
hCNT1 = conditions: read-out: Km for gemcitabine transport; Xenopus laevis oocytes; cited from earlier work
hCNT3 = conditions: read-out: Km for gemcitabine transport; Xenopus laevis oocytes; cited from earlier work
hENT2 = conditions: read-out: Km for gemcitabine transport; Xenopus laevis oocytes; cited from earlier work
hENT1 = conditions: read-out: Km for gemcitabine transport; Xenopus laevis oocytes; cited from earlier work
ENT1 and ENT2 = assay type: in vivo, C57BL/6 mice; conditions: 5 μM [14C]-gemcitabine, 90 min perfusion, 2 mM dilazep
[6] = cited from earlier work
[7] = from intrinsic clearance Vmax/Km, linear conditions
[8] = jejunal flux, 0.5 μM to 2 mM, fit to two Michaelis-Menten terms
[9] = 5 μM gemcitabine co-perfused with 2 mM inhibitor, sodium-containing buffer

Molecule: Nc1ccn([C@@H]2O[C@H](CO)[C@@H](O)C2(F)F)c(=O)n1 [gemcitabine, 2′,2′-difluoro-2′-deoxycytidine]
- effective permeability (Peff) ([1]; 100 μM gemcitabine, jejunum, C57BL/6 mice, analyzed by UPLC): 110 ×10⁻⁶ cm/s
- Papp at 90 min, 100 μM ([1]; both, C57BL/6, mouse, other: in situ single-pass jejunal perfusion, 100 μM [14C]-gemcitabine, jejunum, C57BL/6 mice, analyzed by radioactivity): 105 ×10⁻⁶ cm/s
- Papp at 90 min, 100 μM ([1]; both, C57BL/6, mouse, other: in situ single-pass jejunal perfusion, 100 μM gemcitabine, jejunum, C57BL/6 mice, analyzed by UPLC): 114 ×10⁻⁶ cm/s
- Papp at 90 min, 5 μM ([1]; both, C57BL/6, mouse, other: in situ single-pass jejunal perfusion, pH 6, in situ jejunal permeability, 5 μM gemcitabine, C57BL/6 mice): 150 to 190 ×10⁻⁶ cm/s
- predicted contribution of the high-affinity transport system to uptake [1, 7]: 72%
- predicted contribution of the low-affinity transport system to uptake [1, 7]: 28%
- Vmax,1 (high-affinity, low-capacity transport system) [1, 8]: 3.6 pmol/cm^2/s and 3.6 ± 2.1 pmol/cm^2/s
- Vmax,2 (low-affinity, high-capacity transport system) [1, 8]: 35.9 pmol/cm^2/s and 35.9 ± 5.5 pmol/cm^2/s
- Km ([1]; read-out: Km,1 (high-affinity, low-capacity transport system), jejunal flux, 0.5 μM to 2 mM, fit to two Michaelis-Menten terms): 27.4 ± 13.9 µM
- Km ([1]; read-out: Km,2 (low-affinity, high-capacity transport system), jejunal flux, 0.5 μM to 2 mM, fit to two Michaelis-Menten terms): 700 ± 330 µM
- Papp at 90 min, 100 μM [2]: 109 ± 13 ×10⁻⁶ cm/s
- residual permeability of gemcitabine ([3]; 5 μM gemcitabine in sodium-free buffer (inhibits CNT1 and CNT3)): 31.7%
- jejunal uptake mediated by nucleoside transporters ([3]; C57BL/6 mice): ~ 95%
- oral bioavailability ([4]; gemcitabine alone): 10%
- oral bioavailability ([4]; with tetrahydrouridine (cytidine deaminase inhibitor)): 40%
- Peff [5]: 2 ×10⁻⁶ cm/s
- Km (hCNT1): ~25 µM
- Km (hCNT3): ~60 µM
- Km (hENT2): ~750 µM
- Km (hENT1): ~160 µM

Molecule: Cc1cn([C@H]2C[C@H](O)[C@@H](CO)O2)c(=O)[nH]c1=O [thymidine]
- reduction of jejunal permeability of gemcitabine [3, 9]: about 95%
- residual permeability of gemcitabine [3, 9]: 4.6%

Molecule: COc1cc(C(=O)OCCCN2CCCN(CCCOC(=O)c3cc(OC)c(OC)c(OC)c3)CC2)cc(OC)c1OC [dilazep]
- reduction of jejunal permeability of gemcitabine [3, 9]: about 50%
- residual permeability of gemcitabine [3, 9]: 50.2%
- effect on total gemcitabine radioactivity in intestinal (jejunal) tissue (ENT1 and ENT2): not altered; also recorded: no change
- total gemcitabine radioactivity in portal venous plasma, % control (ENT1 and ENT2): 32.5%

Molecule: Nc1cc[nH]c(=O)n1 [Cytosine, cytosine]
- cytosine in outlet samples ([1]; perfusion of 100 μM gemcitabine, C57BL/6 and BALB/c mice): absent

Molecule: CC1=C(C(=O)O)N2C(=O)[C@@H](NC(=O)[C@H](N)c3ccc(O)cc3)[C@H]2SC1 [cefadroxil]
- in situ jejunal permeability (Peff) [6]: 0.6-0.8 × 10^−4 cm/s

Molecule: glycylsarcosine
- in situ jejunal permeability (Peff) ([6]; mouse): 0.00017 cm/s

Molecule: CC(C)[C@H](N)C(=O)OCCOCn1cnc2c(=O)[nH]c(N)nc21 [valacyclovir]
- in situ jejunal permeability (Peff) [6]: 9e-05 cm/s

Molecule: NCC(=O)CCC(=O)O [5-aminolevulinic acid]
- in situ jejunal permeability (Peff) [6]: 0.00019 cm/s
